Results: publication PMC4515351 (Parasitology, 2014)
Where two headings read alike, the source gives them in different places.

Tests used:
[1] = target: FhGALE (Fasciola hepatica UDP-galactose 4’-epimerase) (Fasciola hepatica, UniProt A0A3G0ZAV7); experiment: biochemical; assay type: biochemical; settings: for Selectivity of inhibition, FhGALE versus HsGALE (in words): as judged by respective IC50 values; for IC50 range in words: under the conditions tested, summary of Table 1
[2] = target: T1, HsGALE (human GALE) (Homo sapiens, UniProt Q14376); experiment: HsGALE inhibition, coupled enzyme assay with UDP-glucose dehydrogenase; assay type: biochemical
T1 sequence (Q14376 1-348): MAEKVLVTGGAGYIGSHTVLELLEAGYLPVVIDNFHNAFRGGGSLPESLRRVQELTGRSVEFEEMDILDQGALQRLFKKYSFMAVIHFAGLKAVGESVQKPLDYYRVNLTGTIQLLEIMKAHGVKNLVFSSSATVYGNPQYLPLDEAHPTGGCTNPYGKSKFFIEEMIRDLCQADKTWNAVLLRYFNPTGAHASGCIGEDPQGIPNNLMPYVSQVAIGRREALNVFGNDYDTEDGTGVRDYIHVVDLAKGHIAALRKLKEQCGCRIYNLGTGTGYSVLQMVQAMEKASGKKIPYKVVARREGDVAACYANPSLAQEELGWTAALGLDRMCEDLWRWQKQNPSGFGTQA

[3] = target: FhGALE (Fasciola hepatica, UniProt A0A3G0ZAV7); assay type: binding; settings: for Kd: read-out: apparent dissociation constant (KD,app); for Effect on melting temperature (Tm) of FhGALE: thermal scanning fluorimetry, FhGALE 3.0 µM
[4] = test system: UDP-glucose dehydrogenase; settings: 100 µM compound, 0.17 mM UDP-glucose, […] NAD+

SMILES	IC50 [1] [µM]	Selectivity of inhibition, FhGALE versus HsGALE (in words) [1]	IC50 range in words [1]	IC50 [2] [µM]	Selectivity of inhibition, FhGALE versus HsGALE (in words) ([1]; listed as 5-fluoroorotate)	IC50 ([1]; read-out: FhGALE IC50, pH 7.5) [µM]	Kd [3] [µM]	Effect on melting temperature (Tm) of FhGALE [3]	Effect on rate of coupling enzyme UDP-glucose dehydrogenase [4]	Selectivity of inhibition, FhGALE versus HsGALE (in words) ([1]; listed as N-[(benzyloxy)carbonyl]leucyltryptophan)
CC(C)c1nc2c([nH]1)c(=O)n(C)c(=O)n2C [NSC14303]	0.3 ± 0.11	inhibited the human enzyme to a greater extent than the liver fluke one	submicromolar	0.013 ± 0.006						
O=C1NC(=O)C(F)C(C(=O)O)N1 (centres unmarked) [NSC31712, 5-fluoro-2,6-dioxohexahydropyrimidine-4-carboxylate]		inhibited FhGALE several orders of magnitude more strongly than HsGALE	submicromolar		selectivity for FhGALE over HsGALE	0.03 ± 0.011	1900 ± 900	reducing the Tm in a concentration dependent manner		
COc1cccc(OCC(O)CN2CCN(c3ccccc3)CC2)c1 (centres unmarked) [NSC91378]									affect the rate	
NC(=O)c1ccc[n+]([C@@H]2O[C@H](COP(=O)([O-])OP(=O)(O)OC[C@H]3O[C@@H](n4cnc5c(N)ncnc54)[C@H](O)[C@@H]3O)[C@@H](O)[C@H]2O)c1 [NAD^+]								no measurable effect		
Cn1c(=O)c2[nH]c(COc3ccc(C(C)(C)C)cc3)nc2n(C)c1=O [NSC36525, 8-[(4-tert-butylphenoxy)methyl]-1,3-dimethyl-3,7-dihydro-1H-purine-2,6-dione]	260	inhibited the human enzyme to a greater extent than the liver fluke one		9.5 ± 8.2						
CCOc1ccc(NC(=O)c2cc3ccccc3cc2O)cc1 [NSC50690, N-(4-ethoxyphenyl)-3-hydroxynaphthalene-2-carboxamide]	0.061 ± 0.02	inhibited both enzymes to approximately the same extent	submicromolar	0.045 ± 0.023						
CC1(C)OC2C(CO)OC(n3cnc4c(=S)nc[nH]c43)C2O1 (centres unmarked) [NSC27305, 9-[6-(hydroxymethyl)-2,2-dimethyltetrahydrofuro[3,4-d][1,3]dioxol-4-yl]-3,9-dihydro-6H-purine-6-thione]	0.00011 ± 0.00012	inhibited both enzymes to approximately the same extent	sub-nanomolar	0.0061 ± 0.0092						
CC(C)CC(NC(=O)OCc1ccccc1)C(=O)NC(Cc1c[nH]c2ccccc12)C(=O)O (centres unmarked) [NSC335979, (3-(1H–indol-3-yl)-2-[[4-methyl-2-(phenylmethoxycarbonylamino)pentanoyl]amino]propionate)]		inhibited FhGALE several orders of magnitude more strongly than HsGALE	submicromolar			0.1 ± 0.046	210 ± 20	reducing the Tm in a concentration dependent manner		selectivity for FhGALE over HsGALE
